Laboratory results taken from patent publication US20130071936A1, “FRET-BASED ZINC(II) ION INDICATOR” (The Florida State University Research Foundation, Inc., priority 2011, published 2013).
Where two headings read alike, the source gives them in different places. Marks after values point to notes of the source that are not given here.

Columns and labels:
[1] = Spectroscopic data (absorption, emission, fluorescence quantum yield) in CH3CN; assay type: physicochemical; conditions: for λabs (A band) / λabs (D band) / λem / ∈/10^3 (A band) / ∈/10^3 (D band): complexes: Zn(ClO4)2 10 equiv.
Procedure: Reagents and solvents were purchased from various commercial sources and used without further purification unless otherwise stated. CH3CN (OmniSolv, EMD) were directly used in titration experiments without purification. All reactions were carried out in oven- or flame-dried glassware. Analytical thin-layer chromatography (TLC) was performed using pre-coated TLC plates with silica gel 60 F254 (EMD) or with aluminum oxide 60 F254 neutral (EMD). Flash column chromatography was performed using 40-63 μm (230-400 mesh ASTM) silica gel (EMD) or alumina (80-200 mesh, pH 9-10, EMD) as the stationary phases. Silica and alumina gel was flame-dried under vacuum to remove absorbed moisture before use. ^1H NMR spectra were recorded at 300 MHz on a Varian Mercury spectrometer. ^13C NMR spectra were recorded at 125 MHz, on a Bruker Avance spectrometer. All chemical shifts were reported in δ units relative to tetramethylsilane. High resolution mass spectra were obtained at the Mass Spectrometry Laboratory at Florida State University. ESI spectra were obtained on a JEOL AccuTOF spectrometer. Spectrophotometric and fluorometric titrations were conducted on a Varian Cary 100 Bio UV-Visible Spectrophotometer and a Varian Cary Eclipse Fluorescence Spectrophotometer, respectively, with a 1-cm standard quartz cell. The fluorescence quantum yield was determined by comparison of the integrated area of corrected emission spectrum with reference of N,N′-di-n-octyl-2,6-di-n-octylamino-1,4,5,8-naphthalenetetracarboxylic acid diimide (φf=0.53 in CH2Cl2) as the reference by the literature method. See Thalacker, C.; Röger, C.; Würthner, F. J. Org.

[2] = pKa and effect of pH on emission; assay type: physicochemical
Procedure: FIG. 10 is a graph depicting the effect of pH on emission spectra of zinc(II) ion chelated FRET donor compound (1) (pH=2.7-10.4).
The titration experiments using zinc(II) ion indicator (4) were also carried out in an aqueous/organic mixed solvent (1:9 MOPS buffer (pH 7.2)/CH3CN). […] (FIG. 9). Comparing to the observations in CH3CN, the fluorescence is rather dim. The loss of fluorescence can be explained by the hydrogen bonding interaction between the protic solvent and the carbonyl groups on NDI, which provides a non-radiative deactivation pathway. See F. Würthner, S. Ahmed, C. Thalacker and T. Debaerdemaeker, Chem. Eur. J., 2002, 8, 4742. […] By extension, the fluorescence of zinc(II) ion indicators (4) and (5) would not be affected by the fluctuations of pH within the physiological range.

[3] = CH3CN, data taken from Younes et al. J. Org. Chem. 2009, cited from earlier work
[4] = system: mitochondria of HeLa (S3) cells transfected with mCerulean3 TOMM-20; test: Colocalization by confocal fluorescence microscopy with mCerulean3 TOMM-20; assay type: cell-based
Procedure: FIGS. 13A through 13F are confocal fluorescence images of living HeLa (S3) cells transfected with mCerulean3 TOMM-20 that were incubated with zinc(II) ion indicator (5) (1.8 μM, A-C) and zinc(II) ion indicator (4) (6.0 μM, D-F) for 30 min. FIGS. 13A (zinc(II) ion indicator (5)) and 13D (zinc(II) ion indicator (4)) depict the green channel, λex 405 nm, λem 425-475 nm. FIGS. 13B (zinc(II) ion indicator (5)) and 13E (zinc(II) ion indicator (4)) depict the red channel, λex 543 nm, λem 580-680 nm. FIGS. 13C (zinc(II) ion indicator (5)) and 13F (zinc(II) ion indicator (4)) depict the merged image. Scale bar: 10 μm.
FIGS. 14A through 14F are confocal fluorescence images of live HeLa (S3) cells transfected with mCer3 TOMM20 that were incubated with FRET acceptor compound (3) (9.0 μM, A-C) and FRET acceptor compound (2) (52 μM, D-F) for 30 min. FIGS. 14A (FRET acceptor compound (3)) and 14D (FRET acceptor compound (2)) depict the green channel, λex 405 nm, λem 425-475 nm. FIGS. 14B (FRET acceptor compound (3)) and […] (FRET acceptor compound (2)) depict the red channel, λex 543 nm, λem 580-680 nm. FIGS. 14C (FRET acceptor compound (3)) and […] (FRET acceptor compound (2)) depict the merged image. Scale bar: 10 μm.
The colocalization properties of red-emitting compounds (2-5) were studied using HeLa (S3) cells transfected with mCerulean3 TOMM-20, a cyan fluorescent protein (CFP) fused with a mitochondrial targeting sequence whose emission is shown in the green channel. See FIG. 13A for emission spectrum from cells incubated with TPP-containing zinc(II) ion indicator (5), and see FIG. 13D for emission spectrum from cells incubated with zinc(II) ion indicator (4). […] The overall intracellular fluorescence intensity from zinc(II) ion indicator (4) is low, which is consistent with the observed weak fluorescence of the NDI fluorophore in aqueous solutions.
The localization properties of (2-5) were determined via costaining experiments using mCerulean3 TOMM-20, a mitochondrial-specific fusion of the cyan fluorescent protein (CFP) mCerulean3. mCerulean3 is a bright monomeric FP with an emission maximum of 475 nm. HeLa S3 cells were seeded onto Bioptechs Delta-T dishes 48 h prior to experimentation, then transfected about 24 h prior to loading the indicator using an Effectene Transfection Reagent Kit (Qiagen) and 1 μg of DNA. A 1:1 mixture of Dulbecco's modified Eagle's medium and Ham's F-12 (Invitrogen) supplemented with 12.5% fetal bovine serum was used as the culture medium. On the day of experimentation cells were rinsed twice with media and incubated with indicator 5 (1.8 μM) for 30 min. Prior to imaging cells were again rinsed twice with media, then provided with 1 mL of fresh media.
All cells were imaged using an Olympus Fluoview FV1000 confocal laser scanning microscope with an Olympus PLAPO 60× oil-immersion objective (NA=1.4). During experimentation cells were maintained at 37° C. and 5.0% CO2 using a Bioptechs Delta T4 Culture Dish Controller. Individual cells were imaged sequentially in two channels, using a 543 nm Helium-Neon laser line to excite the indicator and a 405 nm diode laser line to excite the FP. Cells were selected by the quality of FP expression, as the indicators tended to load homogenously into the cells. All data was collected using FluoView Software (Olympus). Laser power and detection settings were optimized for each image to fill LUTs. A pinhole size of 200 μm was used for each image. […]

[5] = system: mitochondrial zinc(II) in HeLa (S3) cells; test: Zinc(II) supplementation experiment, fluorescence microscopy; assay type: cell-based; conditions: indicator 1.8 μM, 50 μM ZnCl2, λex 405 nm, λem 580-680 nm
Procedure: FIGS. 15A and 15B are fluorescence images of HeLa (S3) cells incubated with compound (5) (1.8 μM). FIG. 15A depicts no zinc(II) added, and FIG. 15B depicts fluorescence in the presence of 50 μM ZnCl2. A 405 nm diode laser line was used for excitation. λem 580-680 nm. Scale bar: 10 μm. The DIC images are included in FIGS. 16A and 16B.
FIGS. 16A and 16B are DIC and fluorescence overlay images of HeLa (S3) cells incubated with compound (5) (1.8 μM). FIG. 16A depicts no zinc(II) added, and FIG. 16B depicts emission in the presence of 50 μM ZnCl2. A 405 nm diode laser line was used for excitation. λem 580-680 nm. Scale bar: 10 μm.
See also FIGS. 16A and 16B. […] The addition of zinc(II) ion indicator (5) to the group of very few synthetic indicators that target mitochondrial zinc(II) shall aid the characterization of mitochondrial zinc(II) which is intimately correlated to the chemistry of reactive oxygen species (ROS). See E. Tomat, E. M. Nolan, J. Jaworski and S. J. Lippard, J. Am. Chem. Soc., 2008, 130, 15776; G. Masanta, C. S. Lim, H. J. Kim, J. H. Han, H. M. Kim and B. R. Cho, J. Am. Chem. Soc., 2011, 133, 5698; Y. Qin, P. J. Dittmer, J. G. Park, K. B. Jansen and A. E. Palmer, Proc. Nat. Acad. Sci. USA, 2011, 108, 7351; and S. L. Sensi, D. Ton-That, P. G. Sullivan, E. A. Jonas, K. R. Gee, L. K. Kaczmarek and J. H. Weiss, Proc. Natl. Acad. Sci. U.S.A., 2003, 100, 6157. […]

[6] = λex = 400 nm, Zn(ClO4)2 10 equiv.

SMILES | λabs (A band) [1] | λabs (D band) [1] | λem [1] [nm] | ∈/10^3 (A band) [1] | ∈/10^3 (D band) [1] | λabs [1] [nm] | ∈/10^3 [1] | φf ([1]; λex = 565 nm) | other results
COCCCN1C(=O)c2cc(NCCOc3ccc(/C=C/c4ccc(-c5ccc(COCCOCCOC)cn5)nc4)cc3)c3c4c(cc(NCCCCC[P+](c5ccccc5)(c5ccccc5)c5ccccc5)c(c24)C1=O)C(=O)N(CCCOC)C3=O.I.[Zn+2] [[Zn(5)]^2+] | 602 (A) nm | 363 (D) nm | 633 | 21 10^3 M^-1 cm^-1 | 67 10^3 M^-1 cm^-1 |  |  |  | φf [1, 6]: 0.29^e
COc1ccc(/C=C/c2ccc(-c3ccc(C)cn3)nc2)cc1 [(1), 5-(4-methoxystyryl)-5′-methyl-2,2′-bipyridine] |  |  | 428 |  |  | 345 | 34 10^3 M^-1 cm^-1 |  | φf ([1]; λex = 365 nm): 0.28^a; pKa [2]: 4.6
COc1ccc(/C=C/c2ccc(-c3ccc(C)cn3)nc2)cc1.[Zn+2] [[Zn(1)]^2+] |  |  |  |  |  |  |  |  | φf ([3]; λex = 365 nm): 0.46^a; λabs [3]: 374 nm; λem [3]: 528 nm; ∈/10^3 [3]: 28 10^3 M^-1 cm^-1; change of fluorescence intensity with pH ([2]; range of pH 6.0-9.0, intensity at 460 nm, λex 380 nm): little change
COCCCNc1cc2c3c(c(NCCOc4ccc(/C=C/c5ccc(-c6ccc(COCCOCCOC)cn6)nc5)cc4)cc4c3c1C(=O)N(CCCOC)C4=O)C(=O)N(CCCOC)C2=O.[Zn+2] [[Zn(4)]^2+] | 600 (A) nm | 360 (D) nm | 633 | 21 10^3 M^-1 cm^-1 | 55 10^3 M^-1 cm^-1 |  |  |  | φf [1, 6]: 0.31^e
COCCCNc1cc2c3c(c(NCCCOC)cc4c3c1C(=O)N(CCCOC)C4=O)C(=O)N(CCCOC)C2=O [Compound (2)] |  |  | 638 |  |  | 607 | 22 10^3 M^-1 cm^-1 | 0.51^c | 
COCCCN1C(=O)c2cc(NCCOc3ccc(/C=C/c4ccc(-c5ccc(COCCOCCOC)cn5)nc4)cc3)c3c4c(cc(NCCCCC[P+](c5ccccc5)(c5ccccc5)c5ccccc5)c(c24)C1=O)C(=O)N(CCCOC)C3=O.[I-] [Compound (5)] | 602 (A) nm | 347 (D) nm | 633 | 23 10^3 M^-1 cm^-1 | 81 10^3 M^-1 cm^-1 |  |  | 0.28^c | colocalization with mitochondrial CFP (mCerulean3 TOMM-20) ([4]; 30 min incubation, (5) 1.8 μM, (4) 6.0 μM, (3) 9.0 μM, (2) 52 μM): localizes selectively in mitochondria; overall intracellular fluorescence intensity ([4]; red channel λex 543 nm, λem 580-680 nm): surprisingly strong intracellular fluorescence; red channel fluorescence upon addition of supplemental zinc(II) in the growth media [5]: increase in intramolecular fluorescence
COCCCNc1cc2c3c(c(NCCCCC[P+](c4ccccc4)(c4ccccc4)c4ccccc4)cc4c3c1C(=O)N(CCCOC)C4=O)C(=O)N(CCCOC)C2=O [Compound (3)] |  |  | 639 |  |  | 607 | 23 10^3 M^-1 cm^-1 | 0.48^c | 
